Measured values reported in US10654834B2 (Venenum Biodesign, LLC, priority 2016, dated 2020).

How the values were obtained:
Mouse STC-1 cells = test: STC-1 GLP-1 assay (GLP-1 secretion); format: cell-based; settings: Mouse STC-1 cells, GLP-1 secretion, 2 h; read-out: Mouse STC-1 HTRF GLP-1 Activity (EC50)
Outline: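 Mouse STC-1 cells were plated two days ahead in DMEM with 10% charcoal-dextran stripped FBS, then exposed to compound in HBSS with protease inhibitors, DPP-IV inhibitor and 0.1% fatty acid free BSA for 2 h at 37° C. Active GLP-1 in supernatant was quantified by HTRF; EC50 derived from 12-point half-log curves.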

human TGR5 receptor = target: T1, human TGR5 receptor (Homo sapiens, UniProt Q8TDU6); test: Human TGR5 cAMP production assay (hTGR5-CHO cells, DiscoveRx cAMP XS+ kit); format: cell-based; settings: luminescent cAMP assay, read-out: Human TGR5 Lum. cAMP Activity (EC50)
T1 construct: host or cells: CHO-K1 (hTGR5-CHO)
T1 sequence (Q8TDU6 1-330): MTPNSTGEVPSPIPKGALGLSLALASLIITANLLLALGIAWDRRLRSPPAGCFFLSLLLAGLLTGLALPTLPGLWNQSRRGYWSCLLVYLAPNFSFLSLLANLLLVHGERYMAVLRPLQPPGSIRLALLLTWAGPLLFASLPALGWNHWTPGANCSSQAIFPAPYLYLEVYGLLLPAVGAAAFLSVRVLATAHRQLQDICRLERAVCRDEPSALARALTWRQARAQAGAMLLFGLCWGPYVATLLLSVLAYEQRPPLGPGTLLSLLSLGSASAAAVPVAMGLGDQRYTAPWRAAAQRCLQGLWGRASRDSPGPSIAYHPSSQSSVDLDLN
Outline: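 CHO-K1 cells stably expressing hTGR5, in PBS with IBMX and cAMP antibody, treated with half-log compound dilutions for 1 h at room temperature. cAMP measured by enzyme-fragment complementation luminescence after overnight detection; EC50 values reported.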

SMILES | EC50 (Mouse STC-1 cells) [nM] | EC50 (human TGR5 receptor) [nM]
N#Cc1ccc(CCNC(=O)[C@@H]2CCCN2c2cc(N3CCC(CCCC(=O)NCCNc4ncc(C(=O)NCCS(=O)(=O)O)cn4)CC3)nc(C(F)(F)F)n2)cc1 [Compound 112, (S)-2-(2-((2-(4-(1-(6-(2-((4-cyanophenethyl)carbamoyl)pyrrolidin-1-yl)-2-(trifluoromethyl)pyrimidin-4-yl)piperidin-4-yl)butanamido)ethyl)amino)-pyrimidine-5-carboxamido)ethanesulfonic acid] | < 100 | < 100
N#Cc1ccc(CCNC(=O)[C@@H]2CCN2c2cc(N3CCC(CCNC(=N)N)CC3)nc(C(F)(F)F)n2)cc1 [Compound 285, (S)-N-(4-cyanophenethyl)-1-(6-(4-(2-guanidinoethyl)piperidin-1-yl)-2-(trifluoromethyl)pyrimidin-4-yl)azetidine-2-carboxamide] | < 100 | < 100
N#Cc1ccc(CCNC(=O)[C@@H]2CCN2c2cc(N3CCC(CCNC(=O)NCCOCCNC(=O)CS(=O)(=O)O)CC3)nc(C(F)(F)F)n2)cc1 [Compound 356, (S)-1-(1-(6-(2-((4-cyanophenethyl)carbamoyl)azetidin-1-yl)-2-(trifluoromethyl)pyrimidin-4-yl)piperidin-4-yl)-4,12-dioxo-8-oxa-3,5,11-triazatridecane-13-sulfonic acid] | 100 to 999 | < 100
N#Cc1ccc(CCNC(=O)[C@@H]2CCCN2c2cc(N3CCC(CCCC(=O)NCCS(N)(=O)=O)CC3)nc(C(F)(F)F)n2)cc1 [Compound 62, (S)-N-(4-cyanophenethyl)-1-(6-(4-(4-oxo-4-((2-sulfamoylethyl)amino)butyl)piperidin-1-yl)-2-(trifluoromethyl)pyrimidin-4-yl)pyrrolidine-2-carboxamide] | < 100 | < 100
NS(=O)(=O)CCNC(=O)CCCC1CCN(c2cc(N3CCC[C@H]3C(=O)NCCc3ccc(C(F)(F)F)cc3)nc(C(F)(F)F)n2)CC1 [Compound 59, (S)-1-(6-(4-(4-oxo-4-((2-sulfamoylethyl)amino)butyl)piperidin-1-yl)-2-(trifluoromethyl)pyrimidin-4-yl)-N-(4-(trifluoromethyl)phenethyl)-pyrrolidine-2-carboxamide] | < 100 | < 100
O=C(O)CNS(=O)(=O)CCNC(=O)CCCC1CCN(c2cc(N3CCC[C@H]3C(=O)NCCc3ccc(C(F)(F)F)cc3)nc(C(F)(F)F)n2)CC1 [Compound 114, (S)-2-(2-(4-(1-(2-(trifluoromethyl)-6-(2-((4-(trifluoromethyl)phenethyl)-carbamoyl)-pyrrolidin-1-yl)pyrimidin-4-yl)piperidin-4-yl)butanamido)ethyl-sulfonamido)acetic acid] | < 100 | < 100
O=C(O)CCCC1CCN(c2cc(N3CCC[C@@H](C(=O)NCCc4ccc(C(F)(F)F)cc4)C3)nc(C(F)(F)F)n2)CC1 [Compound 330, (R)-4-(1-(2-(trifluoromethyl)-6-(3-((4-(trifluoromethyl)phenethyl)carbamoyl)piperidin-1-yl)pyrimidin-4-yl)piperidin-4-yl)butanoic acid] | 100 to 999 | < 100
N#Cc1ccc(CCNC(=O)[C@@H]2CCN2c2cc(N3CCC(CO)CC3)nc(C(F)(F)F)n2)cc1 [Compound 219, (S)—N-(4-cyanophenethyl)-1-(6-(4-(hydroxymethyl)piperidin-1-yl)-2-(trifluoromethyl)pyrimidin-4-yl)azetidine-2-carboxamide] | < 100 | < 100
N#Cc1ccc(CCNC(=O)[C@@H]2CCCN2c2cc(N3CCC(CCCC(=O)NCC(=O)O)CC3)nc(C(F)(F)F)n2)cc1 [Compound 103, (S)-2-(4-(1-(6-(2-((4-cyanophenethyl)carbamoyl)pyrrolidin-1-yl)-2-(trifluoromethyl)pyrimidin-4-yl)piperidin-4-yl)butanamido)acetic acid] | < 100 | < 100
N#Cc1ccc(CCNC(=O)[C@@H]2CCCN2c2cc(N3CCC(CCNC(=N)N)CC3)nc(C(F)(F)F)n2)cc1 [Compound 126, (S)—N-(4-cyanophenethyl)-1-(6-(4-(2-guanidinoethyl)piperidin-1-yl)-2-(trifluoromethyl)pyrimidin-4-yl)pyrrolidine-2-carboxamide] | 100 to 999 | < 100
N#Cc1ccc(CCNC(=O)[C@@H]2CCCN2c2cc(N3CCC(CCCNC(=O)NCC(=O)O)CC3)nc(C(F)(F)F)n2)cc1 [Compound 121, (S)-2-(3-(3-(1-(6-(2-((4-cyanophenethyl)carbamoyl)pyrrolidin-1-yl)-2-(trifluoromethyl)pyrimidin-4-yl)piperidin-4-yl)propyl)ureido)acetic acid] | 100 to 999 | 100 to 999
N#Cc1ccc(CCNC(=O)[C@@H]2CCCN2c2cc(N3CCC(OCC#CCS(=O)(=O)O)CC3)nc(C(F)(F)F)n2)cc1 [Compound 134, (S)-4-((1-(6-(2-((4-cyanophenethyl)carbamoyl)pyrrolidin-1-yl)-2-(trifluoromethyl)pyrimidin-4-yl)piperidin-4-yl)oxy)but-2-yne-1-sulfonic acid] | 100 to 999 | < 100

Second part, the compound after the results:

EC50 (Mouse STC-1 cells) [nM] | EC50 (human TGR5 receptor) [nM] | SMILES
100 to 999 | < 100 | N#Cc1ccc(CCNC(=O)[C@@H]2CCCN2c2cc(N3CCC(CCNc4c(NCCC(=O)O)c(=O)c4=O)CC3)nc(C(F)(F)F)n2)cc1 [Compound 368, (S)-3-((2-((2-(1-(6-(2-((4-cyanophenethyl)carbamoyl)pyrrolidin-1-yl)-2-(trifluoromethyl)pyrimidin-4-yl)piperidin-4-yl)ethyl)amino)-3,4-dioxocyclobut-1-en-1-yl)amino)propanoic acid]
100 to 999 | 100 to 999 | N#Cc1ccc(CCNC(=O)[C@@H]2CCCN2c2cc(N3CCC(CCC(=O)O)CC3)nc(C(F)(F)F)n2)cc1 [Compound 28]
100 to 999 | < 100 | N#Cc1ccc(CCNC(=O)[C@@H]2CCCN2c2cc(N3CCC(CCCC(=O)NCCCC[C@H](NC(=N)N)C(=O)O)CC3)nc(C(F)(F)F)n2)cc1 [Compound 129, (S)-6-(4-(1-(6-((S)-2-((4-cyanophenethyl)carbamoyl)pyrrolidin-1-yl)-2-(trifluoromethyl)pyrimidin-4-yl)piperidin-4-yl)butanamido)-2-guanidinohexanoic acid]
100 to 999 | < 100 | N#Cc1ccc(CCNC(=O)[C@@H]2CCCN(c3cc(N4CCC(CCNC(=O)NCCC(=O)O)CC4)nc(C(F)(F)F)n3)C2)cc1 [Compound 347, (R)-3-(3-(2-(1-(6-(3-((4-cyanophenethyl)carbamoyl)piperidin-1-yl)-2-(trifluoromethyl)pyrimidin-4-yl)piperidin-4-yl)ethyl)ureido)propanoic acid]
100 to 999 | < 100 | N#Cc1ccc(CCNC(=O)[C@@H]2CCCN2c2cc(N3CCC(CCCC(=O)NCCNC(=N)N)CC3)nc(C(F)(F)F)n2)cc1 [Compound 128, (S)-N-(4-cyanophenethyl)-1-(6-(4-(4-((2-guanidinoethyl)amino)-4-oxobutyl)piperidin-1-yl)-2-(trifluoromethyl)pyrimidin-4-yl)pyrrolidine-2-carboxamide]
100 to 999 | < 100 | CN(C)CCC1CCN(c2cc(N3CCC[C@H]3C(=O)NCCc3ccc(C(F)(F)F)cc3)nc(C(F)(F)F)n2)CC1 [Compound 5]
< 100 | < 100 | O=C(O)CCCC1CCN(c2cc(N3CCC[C@H]3C(=O)NCCc3ccc(C(F)(F)F)cc3)nc(C(F)(F)F)n2)CC1 [Compound 9]
